Drawing on PubChem BioAssay (NCI), this text covers TGI and GI50 for 20 compounds.

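Each compound was tested at five concentrations against cells in 96-well plates for 48 hours. GI50 = concentration required for 50% inhibition of growth. TGI is the concentration that stops growth completely.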 Some results are limits rather than exact numbers.

Experiment in all cases: NCI-60 cell line screen, 48 h
For test [1], the system named is A549 NSCLC.
The subject of test [2] is BT-549 breast.
Test [3] concerns HOP-62 NSCLC.
Test [4] deals with K-562 leukemia.
The test system of test [5] is MDA-MB-231 breast.
Test [6] relates to OVCAR-4 ovarian.
In test [7] the test system is OVCAR-8 ovarian.
The subject of test [8] is SN12C renal.

As to `CCCC(=O)Nc1cc([N+](=O)[O-])c([N+](=O)[O-])cc1OC`, the TGI in test [1] was 29.8 µM; in test [2], 31 µM; in test [3] it was 28.1 µM; in test [4] it was greater than 100 µM; in test [5], 38.9 µM; in test [6], 33.6 µM. In addition, the TGI in test [7] was 34.2 µM; in test [8], 29.5 µM.

Regarding `CS(=O)(=O)Nc1cccc(-c2ccc3c(NC(=O)C4CC4)n[nH]c3c2)c1`, the GI50 in test [1] was 10.9 µM; in test [2] it was 5.86 µM; in test [3], 1.16 µM; in test [4], 0.776 µM; in test [5], 6.35 µM; in test [6], 2.68 µM. The GI50 in test [7] is 6.26 µM; in test [8], 5.25 µM. The TGI in test [1] is greater than 25 µM; in test [2], greater than 25 µM; in test [3] it was greater than 21.5 µM; in test [4] it was greater than 25 µM; in test [5] it was greater than 25 µM; in test [6], greater than 25 µM. For the same compound, the TGI in test [7] and in test [8] was greater than 25 µM each time.

For the compound `COc1cc(-n2cc(-c3ccc(F)cc3)[nH]c2=S)cc(OC)c1OC`, the GI50 was greater than 100 µM in test [1]; 58 µM in test [2]; greater than 100 µM in test [3]; greater than 100 µM in test [4]; 36.4 µM in test [5]; greater than 100 µM in test [6]. For the same compound, the GI50 in test [7] and in test [8] was greater than 100 µM throughout. Moreover, the TGI in test [1], in test [2], in test [3], in test [4], in test [5] and in test [6] was greater than 100 µM in each case. Besides, the TGI in test [7] and in test [8] was greater than 100 µM throughout.

With `COc1ccc2c(c1)C(=O)/C(=C/c1ccc([N+](=O)[O-])s1)O2`, the GI50 is 1.06 µM in test [1]; 0.246 µM in test [2]; 1.07 µM in test [3]; 0.291 µM in test [4]; 0.203 µM in test [5]; 0.34 µM in test [6]. Further, the results for the GI50 in test [7] and in test [8] were 0.362 µM and 0.483 µM, respectively. Also, the TGI in test [1] came out at 4.07 µM; in test [2], 0.617 µM; in test [3], 3.47 µM; in test [4], 12.2 µM; in test [5], 0.474 µM; in test [6] it was 1.14 µM. For the same compound, the TGI in test [7] was greater than 100 µM; in test [8] it was 2.32 µM.

Take `COc1cc(OC)c2cc(C(=O)O)c(=O)oc2c1`: the GI50 in test [1], in test [2], in test [3], in test [4], in test [5] and in test [6] was greater than 100 µM throughout. Moreover, the GI50 in test [7] and in test [8] was greater than 100 µM in each case. The TGI in test [1], in test [2], in test [3], in test [4], in test [5] and in test [6] was greater than 100 µM each time. In addition, the TGI in test [7] and in test [8] was greater than 100 µM in each case.

With `COc1cc2c3c(n(CCCCNC(=O)OCC4c5ccccc5-c5ccccc54)c(=O)c2cc1OC)-c1cc2c(cc1C3=O)OCO2`, the GI50 in test [1] was 17.4 µM; in test [2], 79.1 µM; in test [3] it was 5.62 µM; in test [4] it was 3.05 µM; in test [5], 26.5 µM; in test [6], greater than 100 µM. In addition, the GI50 in test [7] is 35 µM; in test [8], 10.7 µM. The TGI was greater than 100 µM in test [1]; greater than 100 µM in test [2]; 34 µM in test [3]; 27.4 µM in test [4]; greater than 100 µM in test [5]; greater than 100 µM in test [6]. Further, the TGI in test [7] was greater than 100 µM; in test [8], 93 µM.

In the case of `Oc1ccc2ccccc2c1C(c1ccc(Cl)cc1)c1c(O)ccc2ccccc12`, the TGI in test [1] stood at 10.8 µM; in test [2] it was 14.1 µM; in test [3], 16 µM; in test [4], 10.6 µM; in test [5], 9.24 µM; in test [6], 11.2 µM. In addition, the TGI in test [7] was determined as 19.9 µM; in test [8] it was 9.72 µM.

Regarding `Cc1[nH]n(-c2ccc(S(=O)(=O)O)cc2)c(=O)c1N=Nc1ccccc1`, the TGI in test [1], in test [2], in test [3], in test [4], in test [5] and in test [6] was greater than 100 µM in each case. The TGI in test [7] and in test [8] was greater than 100 µM throughout.

Turning to `CC1(C)N=C(N)N=C(N)N1c1ccc(OCC(=O)N2CCOCC2)c(Cl)c1`, the GI50 in test [1] is 0.271 µM; in test [2] it was 14.8 µM; in test [3], 12.2 µM; in test [4], 0.854 µM; in test [5] it was greater than 100 µM; in test [6] it was greater than 100 µM. In addition, the GI50 is 7.25 µM in test [7] and 6.9 µM in test [8]. Also, the TGI in test [1], in test [2], in test [3], in test [4], in test [5] and in test [6] was greater than 100 µM in each case. Also, the TGI in test [7] and in test [8] was greater than 100 µM in each case.

With `O=C(Nc1cccc([N+](=O)[O-])c1)c1ccc2ccccc2c1O`, the GI50 in test [1] is 6.87 µM; in test [2], 1.75 µM; in test [3], 10.8 µM; in test [4], 2.79 µM; in test [5], 22.2 µM; in test [6], 4.95 µM. Besides, the GI50 is 9.66 µM in test [7] and 12 µM in test [8]. For the same compound, the TGI is greater than 100 µM in test [1]; 5.53 µM in test [2]; greater than 100 µM in test [3]; greater than 100 µM in test [4]; greater than 81.9 µM in test [5]; greater than 100 µM in test [6]. Also, the TGI is greater than 100 µM in test [7] and greater than 93 µM in test [8].

Turning to `CNc1cccnc1/C=N/NC(N)=S`, the TGI was 9.91 µM in test [1]; greater than 10 µM in test [2]; greater than 8.19 µM in test [3]; greater than 10 µM in test [4]; greater than 10 µM in test [5]; greater than 10 µM in test [6]. For the same compound, the TGI in test [7] was greater than 10 µM; in test [8] it was greater than 8.25 µM.

For `CO/N=C(\COc1ccc2c(c1)oc(=O)c1cc(OC)ccc12)c1cccc(OC)c1`, the GI50 in test [1], in test [2], in test [3], in test [4], in test [5] and in test [6] was greater than 100 µM throughout. The GI50 in test [7] and in test [8] was greater than 100 µM throughout. In addition, the TGI in test [1], in test [2], in test [3], in test [4], in test [5] and in test [6] was greater than 100 µM each time. In addition, the TGI in test [7] and in test [8] was greater than 100 µM each time.

Consider `O=C1/C(=C/c2ccc([N+](=O)[O-])o2)Oc2ccccc21`, for which the GI50 in test [1] was 3.23 µM; in test [2], 1.76 µM; in test [3] it was 2.22 µM; in test [4], 0.371 µM; in test [5], 1.54 µM; in test [6], 1.61 µM. The GI50 in test [7] was 1.35 µM; in test [8], 2.17 µM. Besides, the TGI in test [1] came out at 12.3 µM; in test [2] it was 3.74 µM; in test [3], 6.42 µM; in test [4], 1.97 µM; in test [5] it was 3.58 µM; in test [6] it was 3.65 µM. Also, the results for the TGI in test [7] and in test [8] were 3.82 µM and 5.53 µM, respectively.

`NC(N)=N/N=C(/c1ccccc1)c1ccc(Cl)cc1`: the GI50 in test [1] was 15.5 µM; in test [2], 50.5 µM; in test [3] it was 30.4 µM; in test [4] it was 2.95 µM; in test [5] it was 16.5 µM; in test [6] it was 19 µM. Further, the GI50 is 36.4 µM in test [7] and 27.4 µM in test [8]. Further, the TGI in test [1] was greater than 100 µM; in test [2] it was greater than 100 µM; in test [3], greater than 100 µM; in test [4] it was greater than 100 µM; in test [5] it was 56.6 µM; in test [6], greater than 100 µM. Besides, the TGI in test [7] and in test [8] was greater than 100 µM throughout.

As to `O=c1[nH]ccc2nc(-c3ccc(CN4CCC(c5nc(-c6ccccn6)n[nH]5)CC4)cc3)c(-c3ccccc3)cc12`, the GI50 is 16.2 µM in test [1]; 0.711 µM in test [2]; 27.8 µM in test [3]; 18.9 µM in test [4]; 19.2 µM in test [5]; greater than 80.7 µM in test [6]. Besides, the GI50 in test [7] is 20 µM; in test [8], 32.1 µM. The TGI is greater than 100 µM in test [1]; 30 µM in test [2]; greater than 100 µM in test [3]; greater than 100 µM in test [4]; greater than 75.8 µM in test [5]; greater than 100 µM in test [6]. The TGI in test [7] and in test [8] was greater than 100 µM throughout.

Take `CC(=O)Nc1ccc2c(c1)C(=O)c1cccc(F)c1-2`: the TGI in test [1], in test [2], in test [3], in test [4], in test [5] and in test [6] was greater than 100 µM throughout. The TGI in test [7] and in test [8] was greater than 100 µM throughout.

In the case of `O=C1/C(=C/c2ccc(Cl)cc2)CN(Cc2cn(CCNc3ccnc4cc(Cl)ccc34)nn2)C/C1=C\c1ccc(Cl)cc1`, the GI50 is 0.284 µM in test [1]; 0.488 µM in test [2]; 0.272 µM in test [3]; 0.302 µM in test [4]; 0.293 µM in test [5]; 0.353 µM in test [6]. Further, the GI50 in test [7] was 0.367 µM; in test [8] it was 1.08 µM. Moreover, the TGI in test [1] came out at 0.834 µM; in test [2], 1.44 µM; in test [3], 0.729 µM; in test [4] it was 1.08 µM; in test [5], 0.966 µM; in test [6], 1.81 µM. The TGI in test [7] was 1.43 µM; in test [8], 3.38 µM.

In the case of `CCN(CC)CCCNc1nc2ccccc2c2c(=O)c3cc(Cl)ccc3sc12`, the GI50 in test [1] was 2.02 µM; in test [2], 15.8 µM; in test [3], 3.05 µM; in test [4], 2.29 µM; in test [5], 1.45 µM; in test [6], 4.68 µM. The GI50 is 3.26 µM in test [7] and 3.68 µM in test [8]. The TGI came out at 4.52 µM in test [1]; 30.4 µM in test [2]; 15.8 µM in test [3]; 5.51 µM in test [4]; 3.27 µM in test [5]; 22.7 µM in test [6]. Moreover, the TGI was 15.7 µM in test [7] and 15.4 µM in test [8].

With `CC(C)=CCc1ccc(O)c(=O)cc1C(C)C`, the GI50 in test [1] is 0.656 µM; in test [2], 1.05 µM; in test [3] it was 0.685 µM; in test [4] it was 0.466 µM; in test [5], 3.36 µM; in test [6] it was 0.532 µM. Moreover, the GI50 in test [7] is 0.413 µM; in test [8] it was 0.844 µM. Besides, the TGI is greater than 100 µM in test [1]; 36.4 µM in test [2]; greater than 100 µM in test [3]; greater than 100 µM in test [4]; greater than 100 µM in test [5]; greater than 100 µM in test [6]. Further, the TGI in test [7] and in test [8] was greater than 100 µM in each case.

For `O[C@@H]1CCCN1Cc1cc2cc3c(cc2c2cc(OCc4ccccc4)ccc12)OCO3`, the GI50 is 3.69 µM in test [1]; 11 µM in test [2]; 5.78 µM in test [3]; 2.71 µM in test [4]; 2.18 µM in test [5]; 5.45 µM in test [6]. The GI50 in test [7] was 3.93 µM; in test [8], 3.6 µM. For the same compound, the TGI in test [1] is 14.8 µM; in test [2], 26.4 µM; in test [3], 18.9 µM; in test [4], 8.83 µM; in test [5], 5.59 µM; in test [6], 20.3 µM. Also, the figures for the TGI in test [7] and in test [8] were 17.6 µM and 20.3 µM, respectively.
